System: SUM149PT spheroids with HUVEC/MSC, viability
Assay: Anticancer human tumor SUM149PT cell line growth inhibition [GQUAD];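 further: spheroids exposed to drugs for seven days before readout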;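 on viability, T/C: percent viability relative to DMSO vehicle control taken as 100%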
Conditions: for IC50: curve of first compound; for viability, T/C: stronger effect = lower value
Excerpt: DNA G-quadruplex Stabilizer Agents in Combinations in Complex Spheroids
A high-throughput screen of multi-cell type tumor spheroids was designed to identify active combinations of DNA G-quadruplex stabilizer agents and targeted small molecules. Complex spheroids include a stromal component modeled by human endothelial cells (HUVEC) and fibroblasts modeled by human mesenchymal stem cells (MSCs). The concentration ranges selected for each drug and investigational agent were based upon clinically achievable concentrations if the clinical Cmax of the agent was known.
Compounds. The drugs and investigational agents: pidnarulex (CX-5461; NSC782164), APTO-253 (NSC789042), BRACO-19 (NSC847499), peposertib (NSC802822), ceralasertib (NSC780249), elimusertib (NSC800525), camonsertib (NSC841442), AZD-1390 (NSC803789), olaparib (NSC753686), talazoparib (NSC767125), ART-558 (NSC835418), sotorasib (NSC818433), MRTX-1133 (NSC836407), SN-38 (NSC673596), topotecan (NSC609699), etoposide (NSC141540), doxorubicin (NSC123127), gemcitabine (NSC613327), 5-fluorouracil (NSC19893), paclitaxel (NSC125973), vemurafenib (NSC761431), panobinostat (NSC761190), R-306465 (JNJ-16241199; NSC773264), adavosertib (NSC754352), TP-3654 (NSC805149), carboplatin (NSC241240), KSQ-4279 (NSC840948), and staurosporine (NSC755774) were obtained from the National Cancer Institute (NCI) Developmental Therapeutics Program Chemical Repository (34). The FDA-approved anticancer drug set is available from the NCI Developmental Therapeutics Program. […] The stock solutions were prepared in dimethyl sulfoxide (DMSO, Sigma-Aldrich, St. Louis, MO, cat. D2650) at 800-fold the tested concentration and stored at -70 degrees C prior to their use. All drugs and investigational agents were tested over a range starting from a high concentration at or near the clinical Cmax and decreasing in half-log increments. If the clinical Cmax for an agent had not been determined, the highest concentration tested was 10 microM.
2.3 Cell Culture. All cells were maintained in an incubator at 37 degrees C and 5% CO2 with 95% humidity. The PDC lines were cultured according to standard operating procedures established by the NCI PDMR. All PDCs were thawed and cultured in Matrigel-coated flasks prepared with a working solution of 1X Ham's F-12 nutrient mix, without supplementation (Invitrogen, cat. 11765054), 100 U/mL penicillin-streptomycin (Invitrogen, cat. 15140122), and 2.5% Matrigel (Corning Inc., cat. 354248) for the first three passages. The 857933-349-R-J2-PDC line was cultured in 6C/Colon 1B media, which includes advanced DMEM/F-12 (Thermo Fisher Scientific, cat. 12634028), 10 mM HEPES (Thermo Fisher Scientific, cat. 15630080), 1X GlutaMAX supplement (Thermo Fisher Scientific, cat. 35050061), 0.1 mg/mL primocin (InvivoGen, cat. ant-pm-2), 10% defined fetal bovine serum, heat inactivated (HyClone Laboratories Inc., cat. SH30070.03HI), 50% L-WRN conditioned media (ATCC, cat. CRL-3276), 1.25 mM N-Acetyl-L-cysteine (Sigma-Aldrich, cat. A9165), 10 mM nicotinamide (Sigma-Aldrich, cat. N0636), 1X B-27 supplement (Thermo Fisher Scientific, cat. 17504044), 1X N-2 supplement (Thermo Fisher Scientific, cat. 17502048), 10 microM Y-27632 dihydrochloride (Tocris Bioscience, cat. 1254), and 50 ng/mL human EGF recombinant protein (Thermo Fisher Scientific, cat. PHG0311). The 485176-168-R4-J1-PDC line was cultured in Panc media, which includes all 6C/Colon 1B media components plus 100 ng/mL human FGF-10 (Thermo Fisher Scientific, cat. 100-26), 500 nM SB-431542 (Selleckchem, cat. S1067), and gastrin (Tocris, cat. 3006).
[…]

[1] = second compound 0.0316 µM, first compound 0.0316 µM
[2] = second compound 0.0316 µM, first compound 0.316 µM
[3] = second compound 0.1 µM, first compound 0.0316 µM
[4] = second compound 0.1 µM, first compound 0.316 µM
[5] = second compound 0.316 µM, first compound 0.0316 µM
[6] = second compound 0.316 µM, first compound 0.316 µM
[7] = second compound 1 µM, first compound 0.0316 µM
[8] = second compound 1 µM, first compound 0.316 µM
[9] = second compound 3.16 µM, first compound 0.0316 µM
[10] = second compound 3.16 µM, first compound 0.316 µM
[11] = second compound 10 µM, first compound 0.0316 µM
[12] = second compound 10 µM, first compound 0.316 µM

Structure (SMILES): CC[C@@]1(O)C(=O)OCc2c1cc1n(c2=O)Cc2cc3c(CN(C)C)c(O)ccc3nc2-1 + CN(C)c1ccc(Nc2c3ccc(NC(=O)CCN4CCCC4)cc3nc3cc(NC(=O)CCN4CCCC4)ccc23)cc1
- IC50 (second compound 0.0316 µM): > 0.316 µM
- IC50 (second compound 0.1 µM): > 0.316 µM
- IC50 (second compound 0.316 µM): > 0.316 µM
- IC50 (second compound 1 µM): 0.206 µM
- IC50 (second compound 3.16 µM): 0.084 µM
- IC50 (second compound 10 µM): 0.0981 µM
- viability, T/C (second compound 0.0316 µM, first compound 0.000999 µM): 110%
- viability, T/C (second compound 0.0316 µM, first compound 0.00316 µM): 87.6%
- viability, T/C (second compound 0.0316 µM, first compound 0.00999 µM): 109%
- viability, T/C [1]: 82.2%
- viability, T/C (second compound 0.0316 µM, first compound 0.0999 µM): 55.9%
- viability, T/C [2]: 57%
- viability, T/C (second compound 0.1 µM, first compound 0.000999 µM): 102%
- viability, T/C (second compound 0.1 µM, first compound 0.00316 µM): 102%
- viability, T/C (second compound 0.1 µM, first compound 0.00999 µM): 103%
- viability, T/C [3]: 88.4%
- viability, T/C (second compound 0.1 µM, first compound 0.0999 µM): 56%
- viability, T/C [4]: 57.2%
- viability, T/C (second compound 0.316 µM, first compound 0.000999 µM): 95.6%
- viability, T/C (second compound 0.316 µM, first compound 0.00316 µM): 92.1%
- viability, T/C (second compound 0.316 µM, first compound 0.00999 µM): 90%
- viability, T/C [5]: 83.6%
- viability, T/C (second compound 0.316 µM, first compound 0.0999 µM): 51.6%
- viability, T/C [6]: 52.9%
- viability, T/C (second compound 1 µM, first compound 0.000999 µM): 87.8%
- viability, T/C (second compound 1 µM, first compound 0.00316 µM): 88.2%
- viability, T/C (second compound 1 µM, first compound 0.00999 µM): 80.2%
- viability, T/C [7]: 78.3%
- viability, T/C (second compound 1 µM, first compound 0.0999 µM): 54%
- viability, T/C [8]: 47.6%
- viability, T/C (second compound 3.16 µM, first compound 0.000999 µM): 94.7%
- viability, T/C (second compound 3.16 µM, first compound 0.00316 µM): 84.4%
- viability, T/C (second compound 3.16 µM, first compound 0.00999 µM): 102%
- viability, T/C [9]: 69.7%
- viability, T/C (second compound 3.16 µM, first compound 0.0999 µM): 47.9%
- viability, T/C [10]: 45.1%
- viability, T/C (second compound 10 µM, first compound 0.000999 µM): 92.5%
- viability, T/C (second compound 10 µM, first compound 0.00316 µM): 90%
- viability, T/C (second compound 10 µM, first compound 0.00999 µM): 86.4%
- viability, T/C [11]: 74.2%
- viability, T/C (second compound 10 µM, first compound 0.0999 µM): 48.7%
- viability, T/C [12]: 44.9%

Structure (SMILES): C=CCn1c(=O)c2cnc(Nc3ccc(N4CCN(C)CC4)cc3)nc2n1-c1cccc(C(C)(C)O)n1 + Cc1cnc(CNC(=O)c2c(=O)c3ccc(N4CCCN(C)CC4)nc3n3c2sc2ccccc23)cn1
- IC50 (second compound 0.0316 µM): 0.0686 µM
- IC50 (second compound 0.1 µM): < 0.0316 µM
- IC50 (second compound 0.316 µM): < 0.0316 µM
- IC50 (second compound 1 µM): < 0.0316 µM
- IC50 (second compound 3.16 µM): < 0.0316 µM
- IC50 (second compound 10 µM): < 0.0316 µM
- viability, T/C [1]: 74.3%
- viability, T/C (second compound 0.0316 µM, first compound 0.1 µM): 37%
- viability, T/C [2]: 22.9%
- viability, T/C (second compound 0.0316 µM, first compound 1 µM): 14.2%
- viability, T/C (second compound 0.0316 µM, first compound 3.16 µM): 9.59%
- viability, T/C (second compound 0.0316 µM, first compound 10 µM): 8.42%
- viability, T/C [3]: 42.7%
- viability, T/C (second compound 0.1 µM, first compound 0.1 µM): 34.8%
- viability, T/C [4]: 18.6%
- viability, T/C (second compound 0.1 µM, first compound 1 µM): 16.3%
- viability, T/C (second compound 0.1 µM, first compound 3.16 µM): 9.24%
- viability, T/C (second compound 0.1 µM, first compound 10 µM): 8.01%
- viability, T/C [5]: 45.9%
- viability, T/C (second compound 0.316 µM, first compound 0.1 µM): 32.1%
- viability, T/C [6]: 21.3%
- viability, T/C (second compound 0.316 µM, first compound 1 µM): 16.5%
- viability, T/C (second compound 0.316 µM, first compound 3.16 µM): 11.3%
- viability, T/C (second compound 0.316 µM, first compound 10 µM): 8.57%
- viability, T/C [7]: 34.5%
- viability, T/C (second compound 1 µM, first compound 0.1 µM): 25.6%
- viability, T/C [8]: 20.6%
- viability, T/C (second compound 1 µM, first compound 1 µM): 17.7%
- viability, T/C (second compound 1 µM, first compound 3.16 µM): 13.7%
- viability, T/C (second compound 1 µM, first compound 10 µM): 11.5%
- viability, T/C [9]: 32.9%
- viability, T/C (second compound 3.16 µM, first compound 0.1 µM): 26.3%
- viability, T/C [10]: 20.3%
- viability, T/C (second compound 3.16 µM, first compound 1 µM): 16.7%
- viability, T/C (second compound 3.16 µM, first compound 3.16 µM): 12.7%
- viability, T/C (second compound 3.16 µM, first compound 10 µM): 10.6%
- viability, T/C [11]: 0.17%
- viability, T/C (second compound 10 µM, first compound 0.1 µM): 1.7%
- viability, T/C [12]: 0.84%
- viability, T/C (second compound 10 µM, first compound 1 µM): 1.14%
- viability, T/C (second compound 10 µM, first compound 3.16 µM): 0.21%
- viability, T/C (second compound 10 µM, first compound 10 µM): 2.8%
